This note sets out measurements from paper PMC3831706 (British Journal of Pharmacology, 2013).

This assay has as its target T1, 5-HT3A receptor (Homo sapiens, UniProt P46098).
T1 construct: gene HTR3A
T1 sequence (P46098 24-478): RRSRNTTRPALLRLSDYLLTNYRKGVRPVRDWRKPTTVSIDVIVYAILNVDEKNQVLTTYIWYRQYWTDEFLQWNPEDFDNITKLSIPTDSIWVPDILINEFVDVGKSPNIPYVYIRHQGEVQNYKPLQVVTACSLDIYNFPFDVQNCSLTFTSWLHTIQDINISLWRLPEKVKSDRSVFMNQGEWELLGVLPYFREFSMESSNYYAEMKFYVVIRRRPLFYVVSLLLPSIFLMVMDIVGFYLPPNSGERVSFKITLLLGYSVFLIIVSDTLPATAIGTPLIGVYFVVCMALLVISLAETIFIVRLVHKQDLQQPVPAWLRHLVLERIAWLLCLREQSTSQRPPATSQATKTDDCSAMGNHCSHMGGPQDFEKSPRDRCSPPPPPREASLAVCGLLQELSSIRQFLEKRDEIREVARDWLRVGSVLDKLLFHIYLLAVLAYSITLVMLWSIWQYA
Put plainly: cell-based.

Each structure is given as a SMILES string.

`O=C1c2cccc3c2[C@H](CCC3)CN1[C@@H]1CN2CCC1CC2` [PAL, palonosetron] showed a Ki of 220 ± 70 pM.

What is called Ki is a dissociation constant, usually derived from enzyme kinetics or from competition with a known ligand. A higher Ki goes with weaker binding.
